# Experimental data reported in patent US20250051344A1, “BIFUNCTIONAL SELECTIVE DEGRADERS OF SMARCA2 AND THERAPEUTIC USES THEREOF” (Nurix Therapeutics, Inc., priority 2023, published 2025).
# How the values were obtained:
# SMARCA2 = target: T1, SMARCA2 (Homo sapiens, UniProt P51531); test: SMARCA2 Cellular Degradation Assay (Western blot analysis on Jess platform); format: cell-based; conditions: for DC50 / Dmax: cellular degradation; for Fold Selectivity SMARCA4/2: ratio DC50 SMARCA4 / DC50 SMARCA2
# T1 construct: endogenous in cells
# Procedure: SMARCA2 Cellular Degradation Assay
# Western Blot Analysis for SMARCA2 Degradation
# Frozen cell pellets were thawed on ice and resuspended in RIPA lysis buffer (Millipore, Cat. No. 20-188) supplemented with 0.2% SDS (Fisher Scientific, Cat. No. 24730020), 200 mM β-glycerophosphate (Alfa Aesar, Cat. No. J62121), 500 mM NaF (Rigaku, Cat. No. 1008046), protease inhibitor (1 tablet per 10 mL, Sigma, Cat. No. 11836170001), 250 U/μL benzonase (Millipore, Cat. No. 71206), 200 mM sodium orthovanadate (FivePhoton, Cat. No. ActVO-4), and 100 mM PMSF (Sigma, Cat. No. 10837091001). 50 μL lysis buffer was used to lyse each pellet containing 5×10E5-1×10E6 live cells extracted from tumors. Lysates were centrifuged for 10 mins at 20,817×g and lysate supernatants were saved for further analysis. Protein levels were determined by the BCA Assay performed according to manufacturer's protocol (EMD Millipore, Cat. No. 71285-3). Samples were evaluated by Western blot analysis on the Jess Platform (ProteinSimple). Lysates were diluted with complete lysis buffer (as described above) and 5 μg of total proteins were loaded onto each capillary. Samples were prepared using the ProteinSimple EZ Standard Pack 1 (Cat. No. PS-ST01EZ-8; containing tubes with powdered (5×) Fluorescent Master Mix, DTT, and biotinylated ladder) and run using the ProteinSimple 25-Capillary Cartridge kit (Cat. No. SM-W004; containing 25-capillary cartridge Wash reagent, and 10× Sample Buffer reagent), the ProteinSimple Anti-Rabbit HRP Detection Module for Jess (Cat. No. DM-001; containing Antibody Diluent, anti-rabbit secondary antibody, Luminol-S, Peroxide, and Streptavidin-HRP), and the ProteinSimple Anti-Mouse NIR Detection Module for Jess (Cat. No. DM-009; containing Antibody Diluent, anti-mouse NIR secondary antibody, and Streptavidin-NIR) as the following describes. The DTT was reconstituted with 40 μL water to make a 400 mM solution, 20 μL of the DTT solution plus 20 μL of 10× Sample Buffer were added to reconstitute the 5× Fluorescent Master Mix, and 20 μL of H2O was used to reconstitute the biotinylated ladder. For each sample, lysate (4 μL) was combined with 5× Fluorescent Master Mix (1 μL) and heated at 95° C. for 5 minutes. Samples were cooled and stored on ice. Primary antibody solution was made using anti-SMARCA2 antibody (Abcam, Cat. No. 240648, 1:10) and anti-beta-Actin antibody (Cell Signaling Technology, Cat. No. 3700S, 1:25) in antibody diluent. The 25-capillary cartridges were prepared per standard ProteinSimple protocol with each sample in a column. For the biotinylated ladder in column 1, the following were added: 5 µL of ladder sample in Row A, 10 μL of antibody diluent in Rows B and C, 10 μL of Streptavidin-NIR in Row D, and 15 μL of a 50:50 Luminol-s/Peroxide solution in Row E. For each test sample (columns 2-25), the following were added per column: 5 μL of sample in Row A, 10 μL of antibody diluent in Row B, 10 μL of primary antibody solution in Row C, 10 μL of secondary antibody in Row D, and 15 μL of a 50:50 Luminol-S/Peroxide solution in Row E. 500 μL wash buffer was added to the wash buffer wells in the cartridge and cartridge was spun at 1000×g for 5 minutes prior to loading into the Jess. Samples were run using the Chemiluminescence and Fluorescence immunoassays in the ProteinSimple Compass for SimpleWestern program (version 5.0.0). After running, SMARCA2, actin, and background curves were identified in the Compass software; note that in the Compass software, the electropherograms are also visualized as bands for comparison with standard Western blot outputs. The electropherogram area reading for each sample curve was normalized to that of the corresponding actin curve per column following background (capillary background) subtraction using the following equation: […]
# Following normalization, the percentage of SMARCA2 remaining per sample relative to the vehicle control was calculated as follows: […]
# SMARCA4 = target: T2, SMARCA4 (Homo sapiens, UniProt P51532); test: Cellular degradation assay, SMARCA4 (Table 1); format: cell-based
# T2 construct: endogenous in cells
# T2 sequence (P51532 whole entry, species assumed): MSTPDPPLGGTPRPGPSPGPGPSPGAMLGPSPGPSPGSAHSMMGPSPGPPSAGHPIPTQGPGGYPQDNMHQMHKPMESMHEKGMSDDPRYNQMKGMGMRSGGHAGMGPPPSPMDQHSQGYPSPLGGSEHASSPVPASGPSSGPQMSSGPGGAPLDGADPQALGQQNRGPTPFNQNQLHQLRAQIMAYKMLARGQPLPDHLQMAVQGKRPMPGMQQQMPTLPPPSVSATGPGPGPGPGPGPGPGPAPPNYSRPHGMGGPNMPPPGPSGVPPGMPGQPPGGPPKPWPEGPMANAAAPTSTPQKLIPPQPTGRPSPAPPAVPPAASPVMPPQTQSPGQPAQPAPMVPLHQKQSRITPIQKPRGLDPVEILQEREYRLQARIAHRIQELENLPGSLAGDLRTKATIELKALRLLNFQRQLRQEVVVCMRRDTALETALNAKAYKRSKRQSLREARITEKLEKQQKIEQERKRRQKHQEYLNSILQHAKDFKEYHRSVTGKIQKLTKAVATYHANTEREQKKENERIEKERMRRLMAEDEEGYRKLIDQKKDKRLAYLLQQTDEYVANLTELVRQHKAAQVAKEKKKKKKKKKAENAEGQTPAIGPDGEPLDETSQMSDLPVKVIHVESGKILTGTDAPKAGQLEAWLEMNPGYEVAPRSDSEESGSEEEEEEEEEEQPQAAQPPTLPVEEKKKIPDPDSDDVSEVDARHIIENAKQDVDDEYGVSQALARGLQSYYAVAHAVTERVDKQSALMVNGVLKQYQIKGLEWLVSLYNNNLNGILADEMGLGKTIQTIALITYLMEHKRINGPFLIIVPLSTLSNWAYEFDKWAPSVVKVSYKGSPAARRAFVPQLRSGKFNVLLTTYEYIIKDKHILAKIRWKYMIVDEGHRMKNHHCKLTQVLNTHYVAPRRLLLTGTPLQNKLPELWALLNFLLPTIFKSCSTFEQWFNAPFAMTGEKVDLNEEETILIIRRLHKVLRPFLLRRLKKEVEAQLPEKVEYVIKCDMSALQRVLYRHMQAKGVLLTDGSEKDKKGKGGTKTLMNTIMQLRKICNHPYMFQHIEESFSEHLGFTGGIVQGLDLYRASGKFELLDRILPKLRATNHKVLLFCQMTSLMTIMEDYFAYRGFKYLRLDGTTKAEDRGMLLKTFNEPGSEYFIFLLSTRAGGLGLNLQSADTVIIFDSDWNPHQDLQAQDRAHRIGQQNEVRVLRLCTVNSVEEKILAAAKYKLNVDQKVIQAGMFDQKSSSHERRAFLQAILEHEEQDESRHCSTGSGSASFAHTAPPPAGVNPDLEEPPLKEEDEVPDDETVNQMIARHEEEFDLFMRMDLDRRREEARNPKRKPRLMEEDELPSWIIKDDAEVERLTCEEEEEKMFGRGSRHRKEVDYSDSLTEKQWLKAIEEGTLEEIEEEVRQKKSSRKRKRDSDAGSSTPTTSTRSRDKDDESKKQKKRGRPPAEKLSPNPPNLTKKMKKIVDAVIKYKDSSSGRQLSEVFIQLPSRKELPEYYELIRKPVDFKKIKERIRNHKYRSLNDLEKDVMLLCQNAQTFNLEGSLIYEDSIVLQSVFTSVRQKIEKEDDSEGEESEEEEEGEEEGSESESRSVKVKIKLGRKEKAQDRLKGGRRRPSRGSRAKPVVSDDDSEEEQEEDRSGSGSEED
# T1 sequence (P51531 whole entry, species assumed): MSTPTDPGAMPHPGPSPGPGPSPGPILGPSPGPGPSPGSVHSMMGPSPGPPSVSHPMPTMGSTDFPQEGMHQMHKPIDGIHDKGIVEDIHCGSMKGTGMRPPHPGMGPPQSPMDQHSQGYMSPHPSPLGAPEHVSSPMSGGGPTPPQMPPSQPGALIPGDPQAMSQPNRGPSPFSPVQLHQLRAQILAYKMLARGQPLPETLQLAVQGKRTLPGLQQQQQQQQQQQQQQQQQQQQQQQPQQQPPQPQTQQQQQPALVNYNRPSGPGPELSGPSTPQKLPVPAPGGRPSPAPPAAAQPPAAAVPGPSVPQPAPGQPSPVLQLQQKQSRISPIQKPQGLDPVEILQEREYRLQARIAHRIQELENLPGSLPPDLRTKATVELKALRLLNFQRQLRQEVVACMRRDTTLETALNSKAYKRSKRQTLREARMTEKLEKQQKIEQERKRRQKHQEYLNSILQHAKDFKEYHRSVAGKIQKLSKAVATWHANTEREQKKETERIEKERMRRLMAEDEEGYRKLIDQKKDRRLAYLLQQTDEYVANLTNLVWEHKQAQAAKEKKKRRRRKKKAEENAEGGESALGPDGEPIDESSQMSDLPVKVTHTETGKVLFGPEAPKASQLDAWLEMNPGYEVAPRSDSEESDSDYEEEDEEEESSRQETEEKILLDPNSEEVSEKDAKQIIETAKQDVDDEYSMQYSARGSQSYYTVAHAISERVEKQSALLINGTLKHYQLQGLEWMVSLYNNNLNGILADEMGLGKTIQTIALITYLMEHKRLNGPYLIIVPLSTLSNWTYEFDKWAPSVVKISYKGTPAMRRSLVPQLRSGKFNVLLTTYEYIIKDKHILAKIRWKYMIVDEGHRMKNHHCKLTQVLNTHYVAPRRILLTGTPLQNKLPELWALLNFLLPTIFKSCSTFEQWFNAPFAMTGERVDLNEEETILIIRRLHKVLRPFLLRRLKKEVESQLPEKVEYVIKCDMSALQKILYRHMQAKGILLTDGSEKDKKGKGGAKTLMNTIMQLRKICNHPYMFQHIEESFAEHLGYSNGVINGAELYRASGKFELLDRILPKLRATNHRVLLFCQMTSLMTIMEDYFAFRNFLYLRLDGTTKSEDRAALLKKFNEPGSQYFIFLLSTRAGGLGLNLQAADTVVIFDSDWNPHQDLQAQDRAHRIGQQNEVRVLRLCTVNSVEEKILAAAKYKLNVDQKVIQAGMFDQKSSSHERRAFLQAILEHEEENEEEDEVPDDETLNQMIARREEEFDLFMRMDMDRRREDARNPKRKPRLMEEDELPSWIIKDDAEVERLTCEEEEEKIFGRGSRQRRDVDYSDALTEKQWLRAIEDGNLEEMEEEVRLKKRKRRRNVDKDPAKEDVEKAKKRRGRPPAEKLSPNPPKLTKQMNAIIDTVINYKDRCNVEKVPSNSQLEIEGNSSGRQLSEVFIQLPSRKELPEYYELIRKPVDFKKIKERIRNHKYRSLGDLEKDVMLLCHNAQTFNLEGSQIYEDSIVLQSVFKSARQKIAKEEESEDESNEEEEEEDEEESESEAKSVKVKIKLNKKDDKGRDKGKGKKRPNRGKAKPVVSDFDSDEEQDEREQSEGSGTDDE
DC50 (SMARCA2) [nM],Dmax (SMARCA2) [%],Fold Selectivity SMARCA4/2 (SMARCA2),Dmax (SMARCA4) [%],DC50 (SMARCA4) [nM],SMILES
13.7,75,730,51.5,–,"O=C1CC[C@H](c2ccc(N3CCC(CN4CC[C@H]5[C@H](CCN5C(=O)C5(c6ccccc6)CCN(c6cnnc(-c7ccccc7O)c6)CC5)C4)CC3)cc2)C(=O)N1 (mixture of isomers) [Example 155, (3R)-3-[4-(4-{[(3aRS,7aSR)-1-{1-[6-(2-hydroxyphenyl)pyridazin-4-yl]-4-phenylpiperidine-4-carbonyl}-octahydro-1H-pyrrolo[3,2-c]pyridin-5-yl]methyl}piperidin-1-yl)phenyl]piperidine-2,6-dione]"
18.4,90.6,6,77.3,113,"CN(C(=O)C1(Oc2ccccc2)CCN(c2cnnc(-c3ccccc3O)c2)CC1)C1CCN(CC2CCN(c3ccc([C@H]4CCC(=O)NC4=O)cc3)CC2)C2(CC2)C1 (mixture of isomers) [Example 168, N-[(7RS)-4-[(1-{4-[(3R)-2,6-dioxopiperidin-3-yl]phenyl}piperidin-4-yl)methyl]-4-azaspiro[2.5]octan-7-yl]-1-[6-(2-hydroxyphenyl)pyridazin-4-yl]-N-methyl-4-phenoxypiperidine-4-carboxamide]"
–,35.2,1,13,–,"O=C1CCC(NC(=O)c2cc(N3CCN(C(=O)C4(c5ccccc5)CCN(c5cnnc(-c6ccccc6O)c5)CC4)CC3)ccn2)C(=O)N1 (racemic) [Example 1, rac-N-[(3r)-2,6-dioxopiperidin-3-yl]-4-(4-{1-[6-(2-hydroxyphenyl)pyridazin-4-yl]-4-phenylpiperidine-4-carbonyl}piperazin-1-yl)pyridine-2-carboxamide]"
–,53.5,1,22.1,–,"C[C@H](Oc1ccc(C2CCC(=O)NC2=O)cc1)C1CCN(C(=O)C2(c3ccccc3)CCN(c3cnnc(-c4ccccc4O)c3)CC2)CC1 (mixture of isomers) [Example 2, (3RS)-3-{4-[(1S)-1-(1-{1-[6-(2-hydroxyphenyl)pyridazin-4-yl]-4-phenylpiperidine-4-carbonyl}piperidin-4-yl)ethoxy]phenyl}piperidine-2,6-dione]"
–,54.2,1,17.5,–,"C[C@@H](Oc1ccc(C2CCC(=O)NC2=O)cc1)C1CCN(C(=O)C2(c3ccccc3)CCN(c3cnnc(-c4ccccc4O)c3)CC2)CC1 (mixture of isomers) [Example 3, (3RS)-3-{4-[(1R)-1-(1-{1-[6-(2-hydroxyphenyl)pyridazin-4-yl]-4-phenylpiperidine-4-carbonyl}piperidin-4-yl)ethoxy]phenyl}piperidine-2,6-dione]"
–,16.4,1,9.4,–,"O=C1CCC(c2ccc(OC3CCN(C(=O)C4(c5ccccc5)CCN(c5cnnc(-c6ccccc6O)c5)CC4)CC3)cc2)C(=O)N1 (racemic) [Example 4, rac-(3R)-3-{4-[(1-{1-[6-(2-hydroxyphenyl)pyridazin-4-yl]-4-phenylpiperidine-4-carbonyl}piperidin-4-yl)oxy]phenyl}piperidine-2,6-dione]"
463,59.8,21.62,22.6,–,"O=C1CCC(c2ccc(OCC3CCN(C(=O)C4(c5ccccc5)CCN(c5cnnc(-c6ccccc6O)c5)CC4)CC3)cc2)C(=O)N1 (racemic) [Example 5, rac-(3R)-3-{4-[(1-{1-[6-(2-hydroxyphenyl)pyridazin-4-yl]-4-phenylpiperidine-4-carbonyl}piperidin-4-yl)methoxy]phenyl}piperidine-2,6-dione]"
121,63.6,82.86,31.5,–,"O=C1CCC(c2ccc(N3CCC(CN4CCN(C(=O)C5(c6ccccc6)CCN(c6cnnc(-c7ccccc7O)c6)CC5)CC4)CC3)cc2)C(=O)N1 (racemic) [Example 6, rac-(3R)-3-(4-{4-[(4-{1-[6-(2-hydroxyphenyl)pyridazin-4-yl]-4-phenylpiperidine-4-carbonyl}piperazin-1-yl)methyl]piperidin-1-yl}phenyl)piperidine-2,6-dione]"
–,53.1,1,32,–,"O=C1CCC(c2ccc(N3CCC(CNC4CCN(C(=O)C5(c6ccccc6)CCN(c6cnnc(-c7ccccc7O)c6)CC5)CC4)CC3)cc2)C(=O)N1 (racemic) [Example 7, rac-(3R)-3-[4-(4-{[(1-{1-[6-(2-hydroxyphenyl)pyridazin-4-yl]-4-phenylpiperidine-4-carbonyl}piperidin-4-yl)amino]methyl}piperidin-1-yl)phenyl]piperidine-2,6-dione]"
21.2,69.1,472.68,38.9,–,"O=C1CCC(c2ccc(OCC3CCN(CC4CCN(C(=O)C5(c6ccccc6)CCN(c6cnnc(-c7ccccc7O)c6)CC5)CC4)CC3)cc2)C(=O)N1 (racemic) [Example 11, rac-(3R)-3-[4-({1-[(1-{1-[6-(2-hydroxyphenyl)pyridazin-4-yl]-4-phenylpiperidine-4-carbonyl}piperidin-4-yl)methyl]piperidin-4-yl}methoxy)phenyl]piperidine-2,6-dione]"
144,61.7,69.67,36.9,–,"O=C1CCC(c2ccc(OC3CCN(CC4CCN(C(=O)C5(c6ccccc6)CCN(c6cnnc(-c7ccccc7O)c6)CC5)CC4)CC3)cc2)C(=O)N1 (racemic) [Example 12, rac-(3R)-3-[4-({1-[(1-{1-[6-(2-hydroxyphenyl)pyridazin-4-yl]-4-phenylpiperidine-4-carbonyl}piperidin-4-yl)methyl]piperidin-4-yl}oxy)phenyl]piperidine-2,6-dione]"
–,40.3,1,12.3,–,"O=C1CCC(c2ccc(OC3CCN(C(=O)C4CCN(C(=O)C5(c6ccccc6)CCN(c6cnnc(-c7ccccc7O)c6)CC5)CC4)CC3)cc2)C(=O)N1 (racemic) [Example 13, rac-(3R)-3-(4-{[1-(1-{1-[6-(2-hydroxyphenyl)pyridazin-4-yl]-4-phenylpiperidine-4-carbonyl}piperidine-4-carbonyl)piperidin-4-yl]oxy}phenyl)piperidine-2,6-dione]"
–,22.2,1,15.2,–,"O=C1CCC(c2ccc(OCC3CCN(C(=O)C4CCN(C(=O)C5(c6ccccc6)CCN(c6cnnc(-c7ccccc7O)c6)CC5)CC4)CC3)cc2)C(=O)N1 (racemic) [Example 14, rac-(3R)-3-(4-{[1-(1-{1-[6-(2-hydroxyphenyl)pyridazin-4-yl]-4-phenylpiperidine-4-carbonyl}piperidine-4-carbonyl)piperidin-4-yl]methoxy}phenyl)piperidine-2,6-dione]"
–,44.1,1,27.7,–,"O=C1CCC(c2ccc(N3CCN(C(=O)CC4CCN(C(=O)C5(c6ccccc6)CCN(c6cnnc(-c7ccccc7O)c6)CC5)CC4)CC3)cc2)C(=O)N1 (racemic) [Example 18, rac-(3R)-3-(4-{4-[2-(1-{1-[6-(2-hydroxyphenyl)pyridazin-4-yl]-4-phenylpiperidine-4-carbonyl}piperidin-4-yl)acetyl]piperazin-1-yl}phenyl)piperidine-2,6-dione]"
